Measurements: patent publication EP4603105A1, “PHARMACEUTICAL COMPOSITION CONTAINING CYCLIC COMPOUND HAVING SELECTIVE KRAS INHIBITORY EFFECT AGAINST HRAS AND NRAS” (CHUGAI SEIYAKU KABUSHIKI KAISHA, priority 2022, dated 2024)

Assays:
HRAS wild-type protein = HRAS wild-type protein (Homo sapiens, UniProt P01112); experiment: Binding to HRAS by surface plasmon resonance (SPR), KD and KD ratio to KRAS; settings: ratio of KD for HRAS wild-type protein to KD for KRAS
How it was run: (§1)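 Compound binding is evaluated by SPR single-cycle kinetics, with concentrations added intermittently from low to high for 75 s each. Target surfaces carry GDP-loaded biotinylated Avi-RAS at about 100–300 RU, regenerated after each cycle; temperature 30°C. A 1:1 binding model gives KD.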

[1] = biological target: GDP-bound NRAS wild-type protein (Homo sapiens, UniProt P01111); experiment: Binding to NRAS by surface plasmon resonance (SPR), KD and KD ratio to KRAS; settings: ratio of KD for GDP-bound NRAS wild-type protein to KD for KRAS
How it was run: as §1

[2] = tested on: human lung cancer strain NCI-H441; experiment: NCI-H441 cell proliferation inhibitory activity (CellTiter-Glo, 4 days); format: cell-based; settings: NCI-H441 cells, 4 days, read-out: NCl-H441 IC50
How it was run: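 Proliferation was scored by […] measured after the reagent was added to cultures kept at 37°C in 5% carbon dioxide.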

[3] = biological target: GDP-bound KRAS wild-type protein (Homo sapiens, UniProt P01116); experiment: Binding to KRAS by surface plasmon resonance (SPR), dissociation constant KD
How it was run: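 SPR, 30°C: Avi-biotin RAS·GDP captured via Biotin CAPture (~100–300 RU); running buffer HBS pH 7.4, 1 mM DTT, 10 mM MgCl2, 0.01% Tween 20, 10 µM GDP, 4% DMSO. Single-cycle kinetics, 100 µL/min, 75 s injections; 1:1 model → KD.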

GDP-bound KRAS wild-type protein, sequence (P01116 1-188 isoform P01116-2): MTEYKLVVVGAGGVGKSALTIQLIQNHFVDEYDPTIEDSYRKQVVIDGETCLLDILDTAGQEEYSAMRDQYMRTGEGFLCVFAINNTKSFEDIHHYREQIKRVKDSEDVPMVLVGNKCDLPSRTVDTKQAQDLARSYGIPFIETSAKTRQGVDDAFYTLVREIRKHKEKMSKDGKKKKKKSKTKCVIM
HRAS wild-type protein, sequence (P01112 whole entry): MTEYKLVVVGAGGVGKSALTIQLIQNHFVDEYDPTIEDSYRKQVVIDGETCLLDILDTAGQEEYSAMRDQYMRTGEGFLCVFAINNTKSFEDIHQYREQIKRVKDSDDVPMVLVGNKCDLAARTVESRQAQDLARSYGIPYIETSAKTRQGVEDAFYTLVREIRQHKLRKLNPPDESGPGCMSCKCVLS
GDP-bound NRAS wild-type protein, sequence (P01111 whole entry): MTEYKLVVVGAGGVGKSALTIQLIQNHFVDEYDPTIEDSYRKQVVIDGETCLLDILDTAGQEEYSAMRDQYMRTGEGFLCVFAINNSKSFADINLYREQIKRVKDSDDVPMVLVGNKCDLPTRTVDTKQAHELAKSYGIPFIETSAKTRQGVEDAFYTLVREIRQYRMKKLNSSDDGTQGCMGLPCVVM

Compound	IC50 [2] [nM]	Kd ([3]; 1:1 binding model) [nM]	Kd ([3]; Single Cycle Kinetics) [nM]	HRAS /KRAS (HRAS wild-type protein)	NRAS /KRAS [1]
CCC[C@H]1C(=O)N[C@@H]([C@@H](C)CC)C(=O)N(C2CC2)CC(=O)N(C)[C@H]2C/C=C\CCN(C2=O)[C@@H](Cc2ccc(C)cc2)C(=O)N(C)CC(=O)N[C@@H](CCc2ccc(Cl)c(Cl)c2)C(=O)N2C[C@H](OCC)C[C@H]2C(=O)NC2(CC(C)(C)C2)C(=O)N(C)[C@@H](CC2CCC2)C(=O)N(C)[C@H](C(=O)N(C)C)CC(=O)N1C [PP2761]	68.4	2.8	–	A (a compound having 10 or more and less than 20 is denoted as A)	A (a compound having 10 or more and less than 20 is denoted as A)
CCOC[C@H]1C(=O)N[C@@H]([C@@H](C)CC)C(=O)N(C2CC2)CC(=O)N(C)[C@H]2C/C=C\CCN(C2=O)[C@@H](Cc2ccc(C)cc2)C(=O)N(C)CC(=O)N[C@@H](CCc2ccc(Cl)c(Cl)c2)C(=O)N2C[C@H](OCC)C[C@H]2C(=O)NC2(CC(C)(C)C2)C(=O)N(C)[C@@H](CC2CCC2)C(=O)N(C)[C@H](C(=O)N(C)C)CC(=O)N1C [PP2762]	122	2.9	–	A (a compound having 10 or more and less than 20 is denoted as A)	A (a compound having 10 or more and less than 20 is denoted as A)
CCOC[C@H]1C(=O)N[C@@H]([C@@H](C)CC)C(=O)N(C)CC(=O)N(C)[C@H]2C/C=C\CCN(C2=O)[C@@H](Cc2ccc(C(F)(F)F)cc2)C(=O)N(C)CC(=O)N[C@@H](CCc2cc(F)c(C(F)(F)F)c(F)c2)C(=O)N2C[C@H](OCC)C[C@H]2C(=O)NC2(CC(C)(C)C2)C(=O)N(C)[C@@H](CC2CCC2)C(=O)N(C)[C@H](C(=O)N(C)C)CC(=O)N1C [PP2763]	71.9	0.86	–	A (a compound having 10 or more and less than 20 is denoted as A)	A (a compound having 10 or more and less than 20 is denoted as A)
CCC[C@H]1C(=O)N[C@@H]([C@@H](C)CC)C(=O)N(C)CC(=O)N(C)[C@H]2C/C=C\CCN(C2=O)[C@@H](Cc2ccc(C(F)(F)F)cc2)C(=O)N(C)CC(=O)N[C@@H](CCc2ccc(C(F)(F)F)c(OC)c2)C(=O)N2C[C@H](OCC)C[C@H]2C(=O)NC2(CC(C)(C)C2)C(=O)N(C)[C@@H](CC2CCC2)C(=O)N(C)[C@H](C(=O)N(C)C)CC(=O)N1C [PP2764]	55.8	0.85	–	A (a compound having 10 or more and less than 20 is denoted as A)	A (a compound having 10 or more and less than 20 is denoted as A)
CCC[C@H]1C(=O)N[C@@H]([C@@H](C)CC)C(=O)N(C)CC(=O)N(C)[C@H]2C/C=C\CCN(C2=O)[C@@H](Cc2ccc(C(F)(F)F)cc2)C(=O)N(C)CC(=O)N[C@@H](CCc2ccc(Cl)c(Cl)c2)C(=O)N2C[C@H](OCC)C[C@H]2C(=O)NC2(CC(C)(C)C2)C(=O)N(C)[C@@H](CC2CCC2)C(=O)N(C)[C@H](C(=O)N(C)C)CC(=O)N1C [PP2766]	26	0.52	–	A (a compound having 10 or more and less than 20 is denoted as A)	A (a compound having 10 or more and less than 20 is denoted as A)
CCOC[C@H]1C(=O)N[C@@H]([C@@H](C)CC)C(=O)N(C)CC(=O)N(C)[C@H]2C/C=C\CCN(C2=O)[C@@H](Cc2ccc(C(F)(F)F)cc2)C(=O)N(C)CC(=O)N[C@@H](CCc2ccc(Cl)c(Cl)c2)C(=O)N2C[C@H](OCC)C[C@H]2C(=O)NC2(CC(C)(C)C2)C(=O)N(C)[C@@H](CC2CCC2)C(=O)N(C)[C@H](C(=O)N(C)C)CC(=O)N1C [PP2767]	62.6	0.49	–	A (a compound having 10 or more and less than 20 is denoted as A)	A (a compound having 10 or more and less than 20 is denoted as A)

More lines, main results first:

IC50 [2] [nM]	Kd ([3]; 1:1 binding model) [nM]	Kd ([3]; Single Cycle Kinetics) [nM]	Compound	HRAS /KRAS (HRAS wild-type protein)	NRAS /KRAS [1]
480	–	1.9	CCO[C@@H]1C[C@H]2C(=O)NC3(CC(C)(C)C3)C(=O)N(C)[C@@H](C3CCCC3)C(=O)N(C)[C@H](C(=O)N(C)CC)CC(=O)N(C)[C@@H]([C@H](C)OC)C(=O)N[C@@H]([C@@H](C)CC)C(=O)N3CCC[C@H]3C(=O)N(C)[C@H]3C/C=C\CCN(C3=O)[C@@H](Cc3ccc(C)cc3)C(=O)N(C)CC(=O)N[C@@H](CCc3ccc(C(F)(F)F)c(Cl)c3)C(=O)N2C1 [PP3165]	A (a compound having 10 or more and less than 20 is denoted as A)	A (a compound having 10 or more and less than 20 is denoted as A)
9.8	–	0.1	CCO[C@@H]1C[C@H]2C(=O)NC3(CC(C)(C)C3)C(=O)N(C)[C@@H](C3CCCC3)C(=O)N(C)[C@H](C(=O)N(C)C)CC(=O)N(C)[C@@H]([C@H](C)OC)C(=O)N[C@@H]([C@@H](C)CC)C(=O)N(C)CC(=O)N(C)[C@H]3C/C=C\CCN(C3=O)[C@@H](Cc3ccc(C(F)(F)F)cc3)C(=O)N(C)CC(=O)N[C@@H](CCc3ccc(C(F)(F)F)c(OC)c3)C(=O)N2C1 [PP3167]	A (a compound having 10 or more and less than 20 is denoted as A)	B (a compound having 3 or more and less than 10 is denoted as B)
7.9	–	0.064	CCO[C@@H]1C[C@H]2C(=O)NC3(CC(C)(C)C3)C(=O)N(C)[C@@H](C3CCCC3)C(=O)N(C)[C@H](C(=O)N(C)C)CC(=O)N(C)[C@@H]([C@H](C)OC)C(=O)N[C@@H]([C@@H](C)CC)C(=O)N(C)CC(=O)N(C)[C@H]3C/C=C\CCN(C3=O)[C@@H](Cc3ccc(C(F)(F)F)cc3)C(=O)N(C)CC(=O)N[C@@H](CCc3cc(F)c(C(F)(F)F)c(F)c3)C(=O)N2C1 [PP3169]	A (a compound having 10 or more and less than 20 is denoted as A)	A (a compound having 10 or more and less than 20 is denoted as A)
42.5	–	0.84	CCO[C@@H]1C[C@H]2C(=O)NC3(CC(C)(C)C3)C(=O)N(C)[C@@H](C3CCCC3)C(=O)N(C)[C@H](C(=O)N(C)CC)CC(=O)N(C)[C@@H]([C@@H](C)OC)C(=O)N[C@@H]([C@@H](C)CC)C(=O)N3CCC[C@H]3C(=O)N(C)[C@H]3C/C=C\CCN(C3=O)[C@@H](Cc3ccc(C(F)(F)F)cc3)C(=O)N(C)CC(=O)N[C@@H](CCc3ccc(C(F)(F)F)c(OC)c3)C(=O)N2C1 [PP3170]	A (a compound having 10 or more and less than 20 is denoted as A)	A (a compound having 10 or more and less than 20 is denoted as A)
15.9	–	0.076	CCO[C@@H]1C[C@H]2C(=O)NC3(CC(C)(C)C3)C(=O)N(C)[C@@H](C3CCCC3)C(=O)N(C)[C@H](C(=O)N(C)C)CC(=O)N(C)[C@@H]([C@H](C)OC)C(=O)N[C@@H]([C@@H](C)CC)C(=O)N(C)CC(=O)N(C)[C@H]3C/C=C\CCN(C3=O)[C@@H](Cc3ccc(C(F)(F)F)cc3)C(=O)N(C)CC(=O)N[C@@H](CCc3ccc(C(F)(F)F)c(Cl)c3)C(=O)N2C1 [PP3171]	A (a compound having 10 or more and less than 20 is denoted as A)	A (a compound having 10 or more and less than 20 is denoted as A)
69.9	–	0.81	CCO[C@@H]1C[C@H]2C(=O)NC3(CC(C)(C)C3)C(=O)N(C)[C@@H](C3CCCC3)C(=O)N(C)[C@H](C(=O)N(C)CC)CC(=O)N(C)[C@@H]([C@@H](C)OC)C(=O)N[C@@H]([C@@H](C)CC)C(=O)N3CCC[C@H]3C(=O)N(C)[C@H]3C/C=C\CCN(C3=O)[C@@H](Cc3ccc(C(F)(F)F)cc3)C(=O)N(C)CC(=O)N[C@@H](CCc3cc(F)c(C(F)(F)F)c(F)c3)C(=O)N2C1 [PP3172]	A (a compound having 10 or more and less than 20 is denoted as A)	AA (a compound having 20 or more is denoted as AA)
33.1	–	0.57	CCO[C@@H]1C[C@H]2C(=O)NC3(CC(C)(C)C3)C(=O)N(C)[C@@H](C3CCCC3)C(=O)N(C)[C@H](C(=O)N(C)C)CC(=O)N(C)[C@@H]([C@H](C)OC)C(=O)N[C@@H]([C@@H](C)CC)C(=O)N(C3CC3)CC(=O)N(C)[C@H]3C/C=C\CCN(C3=O)[C@@H](Cc3ccc(C(F)(F)F)cc3)C(=O)N(C)CC(=O)N[C@@H](CCc3ccc(C(F)(F)F)c(OC)c3)C(=O)N2C1 [PP3173]	B (a compound having 3 or more and less than 10 is denoted as B)	B (a compound having 3 or more and less than 10 is denoted as B)
105	–	1.1	CCO[C@@H]1C[C@H]2C(=O)NC3(CC(C)(C)C3)C(=O)N(C)[C@@H](C3CCCC3)C(=O)N(C)[C@H](C(=O)N(C)CC)CC(=O)N(C)[C@@H]([C@@H](C)OC)C(=O)N[C@@H]([C@@H](C)CC)C(=O)N3CCC[C@H]3C(=O)N(C)[C@H]3C/C=C\CCN(C3=O)[C@@H](Cc3ccc(C(F)(F)F)cc3)C(=O)N(C)CC(=O)N[C@@H](CCc3ccc(C(F)(F)F)c(Cl)c3)C(=O)N2C1 [PP3174]	A (a compound having 10 or more and less than 20 is denoted as A)	AA (a compound having 20 or more is denoted as AA)
